This data set concerns CCRIS mutagenicity, Ames/micronucleus/aberration tests. Description: CCRIS mutagenicity studies.
Setting [1] is: Test System: AMES SALMONELLA TYPHIMURIUM, Strain/Indicator: TA98, Metabolic Activation: NONE, Method: STANDARD PLATE.
[2] abbreviates: Test System: AMES SALMONELLA TYPHIMURIUM, Strain/Indicator: TA98, Metabolic Activation: RAT, LIVER, S-9, AROCLOR 1254, Method: STANDARD PLATE.
The mark [3] stands for this setting: Test System: AMES SALMONELLA TYPHIMURIUM, Strain/Indicator: TA100, Metabolic Activation: NONE, Method: STANDARD PLATE.
Where [4] appears, read: Test System: AMES SALMONELLA TYPHIMURIUM, Strain/Indicator: TA100, Metabolic Activation: RAT, LIVER, S-9, AROCLOR 1254, Method: STANDARD PLATE.
The mark [5] stands for this setting: Test System: AMES SALMONELLA TYPHIMURIUM, Strain/Indicator: TA1535, Metabolic Activation: RAT, LIVER, S-9, AROCLOR 1254, Method: STANDARD PLATE.
[6] abbreviates: Test System: AMES SALMONELLA TYPHIMURIUM, Strain/Indicator: TA1537, Metabolic Activation: NONE, Method: STANDARD PLATE.
[7] abbreviates: Test System: AMES SALMONELLA TYPHIMURIUM, Strain/Indicator: TA1537, Metabolic Activation: RAT, LIVER, S-9, AROCLOR 1254, Method: STANDARD PLATE.
The mark [8] stands for this setting: Test System: AMES SALMONELLA TYPHIMURIUM, Strain/Indicator: TA1538, Metabolic Activation: NONE, Method: STANDARD PLATE.
[9] abbreviates: Test System: AMES SALMONELLA TYPHIMURIUM, Strain/Indicator: TA1538, Metabolic Activation: RAT, LIVER, S-9, AROCLOR 1254, Method: STANDARD PLATE.

The record followed here is PubChem BioAssay AID1259407 (Chemical Carcinogenesis Research Information System (CCRIS), 2018).

Active and inactive are the calls of the source. No rule for the calls is given here.

For `CC(C)(C)NC[C@@H](O)COc1ccccc1C1CCCC1`, the mutagenic call is, setting by setting: under setting [1], “active; positive”; under setting [2], “active; positive”.

In the case of `CN(CCO)CCO`, the mutagenic call was “inactive; negative” (Test System: AMES SALMONELLA TYPHIMURIUM, Strain/Indicator: TA98, Metabolic Activation: HAMSTER, LIVER, S-9, AROCLOR 1254 (10%), Method: PREINCUBATION); “inactive; negative” (Test System: AMES SALMONELLA TYPHIMURIUM, Strain/Indicator: TA98, Metabolic Activation: NONE, Method: PREINCUBATION); “inactive; negative” under setting [1]; “inactive; negative” (Test System: AMES SALMONELLA TYPHIMURIUM, Strain/Indicator: TA98, Metabolic Activation: RAT, LIVER, S-9, AROCLOR 1254 (10%), Method: PREINCUBATION); “inactive; negative” under setting [2]; “inactive; negative” (Test System: AMES SALMONELLA TYPHIMURIUM, Strain/Indicator: TA100, Metabolic Activation: HAMSTER, LIVER, S-9, AROCLOR 1254 (10%), Method: PREINCUBATION). In addition, the mutagenic call is, setting by setting: (Test System: AMES SALMONELLA TYPHIMURIUM, Strain/Indicator: TA100, Metabolic Activation: NONE, Method: PREINCUBATION) “inactive; negative”; under setting [3], “inactive; negative”; (Test System: AMES SALMONELLA TYPHIMURIUM, Strain/Indicator: TA100, Metabolic Activation: RAT, LIVER, S-9, AROCLOR 1254 (10%), Method: PREINCUBATION) “inactive; negative”; under setting [4], “inactive; negative”; (Test System: AMES SALMONELLA TYPHIMURIUM, Strain/Indicator: TA1535, Metabolic Activation: HAMSTER, LIVER, S-9, AROCLOR 1254 (10%), Method: PREINCUBATION) “inactive; negative”; (Test System: AMES SALMONELLA TYPHIMURIUM, Strain/Indicator: TA1535, Metabolic Activation: NONE, Method: PREINCUBATION) “inactive; negative”. Further, the mutagenic call is “inactive; negative” (Test System: AMES SALMONELLA TYPHIMURIUM, Strain/Indicator: TA1535, Metabolic Activation: NONE, Method: STANDARD PLATE); “inactive; negative” (Test System: AMES SALMONELLA TYPHIMURIUM, Strain/Indicator: TA1535, Metabolic Activation: RAT, LIVER, S-9, AROCLOR 1254 (10%), Method: PREINCUBATION); “inactive; negative” under setting [5]; “inactive; negative” (Test System: AMES SALMONELLA TYPHIMURIUM, Strain/Indicator: TA1537, Metabolic Activation: HAMSTER, LIVER, S-9, AROCLOR 1254 (10%), Method: PREINCUBATION); “inactive; negative” (Test System: AMES SALMONELLA TYPHIMURIUM, Strain/Indicator: TA1537, Metabolic Activation: NONE, Method: PREINCUBATION); “inactive; negative” under setting [6]. The mutagenic call reads like this: (Test System: AMES SALMONELLA TYPHIMURIUM, Strain/Indicator: TA1537, Metabolic Activation: RAT, LIVER, S-9, AROCLOR 1254 (10%), Method: PREINCUBATION) “inactive; negative”; under setting [7], “inactive; negative”; under setting [8], “inactive; negative”; under setting [9], “inactive; negative”; (Test System: CHINESE HAMSTER OVARY, Strain/Indicator: CHO-K1-BH4, Metabolic Activation: NONE) “inactive; negative”; (Test System: CHINESE HAMSTER OVARY, Strain/Indicator: CHO-K1-BH4, Metabolic Activation: RAT, LIVER, S-9, AROCLOR 1254) “inactive; negative”.

Consider `CC(=O)Nc1cccc2cc(F)cnc12`, for which the mutagenic call (Test System: AMES SALMONELLA TYPHIMURIUM, Strain/Indicator: TA100, Metabolic Activation: RAT, LIVER, S-9, PHENOBARBITAL AND 5,6-BENZOFLAVONE, Method: PREINCUBATION) was “active; positive”.

As to `Cc1ccc2nc(-c3ccc(N)cc3)sc2c1`, the mutagenic call is “inactive; negative” (Test System: AMES SALMONELLA TYPHIMURIUM, Strain/Indicator: 1537, Metabolic Activation: NONE, Method: STANDARD PLATE); “active; positive” (Test System: AMES SALMONELLA TYPHIMURIUM, Strain/Indicator: TA98, Metabolic Activation: HAMSTER, LIVER, S-9, AROCLOR 1254, Method: STANDARD PLATE); “inactive; negative” under setting [1]; “active; positive” under setting [2]; “active; positive” (Test System: AMES SALMONELLA TYPHIMURIUM, Strain/Indicator: TA100, Metabolic Activation: HAMSTER, LIVER, S-9, AROCLOR 1254, Method: STANDARD PLATE); “inactive; negative” under setting [3]. The mutagenic call is, setting by setting: under setting [4], “active; positive”; (Test System: AMES SALMONELLA TYPHIMURIUM, Strain/Indicator: TA1535, Metabolic Activation: HAMSTER, LIVER, S-9, AROCLOR 1254, Method: STANDARD PLATE) “inactive; negative”; under setting [5], “inactive; negative”; (Test System: AMES SALMONELLA TYPHIMURIUM, Strain/Indicator: TA1537, Metabolic Activation: HAMSTER, LIVER, S-9, AROCLOR 1254, Method: STANDARD PLATE) “active; positive”; under setting [7], “active; positive”; (Test System: AMES SALMONELLA TYPHIMURIUM, Strain/Indicator: TA1538, Metabolic Activation: HAMSTER, LIVER, S-9, AROCLOR 1254, Method: STANDARD PLATE) “active; positive”. The mutagenic call is, setting by setting: under setting [8], “inactive; negative”; under setting [9], “active; positive”; (Test System: MOUSE LYMPHOMA, Strain/Indicator: L5178Y (TK+/TK-), Metabolic Activation: NONE, Method: SUSPENSION/PLATE) “active; positive. reevaluation of results: positive”; (Test System: MOUSE LYMPHOMA, Strain/Indicator: L5178Y (TK+/TK-), Metabolic Activation: RAT, LIVER, S-9, AROCLOR 1254, Method: SUSPENSION/PLATE) “active; positive. reevaluation of results: positive”.

For the molecule `CC1(C)C[C@H]2C=C(C=O)[C@]34C[C@]3(C(=O)O[C@@H]4O)[C@H]2C1`, the mutagenic call (Test System: AMES SALMONELLA TYPHIMURIUM, Strain/Indicator: TA98, Metabolic Activation: NONE, Method: SPOT TEST) was “active; positive”; the mutagenic call under setting [1] is “active; positive”; the mutagenic call (Test System: AMES SALMONELLA TYPHIMURIUM, Strain/Indicator: TA100, Metabolic Activation: NONE, Method: SPOT TEST) is “inactive; negative”; the mutagenic call under setting [3] was “active; positive”; the mutagenic call (Test System: AMES SALMONELLA TYPHIMURIUM, Strain/Indicator: TA1535, Metabolic Activation: NONE, Method: SPOT TEST) was “inactive; negative”; the mutagenic call (Test System: AMES SALMONELLA TYPHIMURIUM, Strain/Indicator: TA1538, Metabolic Activation: NONE, Method: SPOT TEST) was “inactive; negative”. For the same molecule, the mutagenic call is “active; positive” (Test System: AMES SALMONELLA TYPHIMURIUM, Strain/Indicator: TA2637, Metabolic Activation: NONE, Method: STANDARD PLATE) and “inactive; negative” (Test System: CHINESE HAMSTER V-79, Strain/Indicator: V-79/6-THIOGUANINE (HGPRT), Metabolic Activation: NONE).

Regarding `Cc1cc([N+](=O)[O-])c(C)c2c1[nH]c1ccc([N+](=O)[O-])cc12`, the mutagenic call is, setting by setting: under setting [1], “active; positive”; (Test System: AMES SALMONELLA TYPHIMURIUM, Strain/Indicator: TA98, Metabolic Activation: RAT LIVER S-9, AROCLOR 1254, Method: STANDARD PLATE) “active; positive”; under setting [3], “active; positive”; (Test System: AMES SALMONELLA TYPHIMURIUM, Strain/Indicator: TA100, Metabolic Activation: RAT LIVER S-9, AROCLOR 1254, Method: STANDARD PLATE) “active; positive”; under setting [6], “active; positive”; (Test System: AMES SALMONELLA TYPHIMURIUM, Strain/Indicator: TA1537, Metabolic Activation: RAT LIVER S-9, AROCLOR 1254, Method: STANDARD PLATE) “active; positive”. Moreover, the mutagenic call runs as follows: (Test System: AMES SALMONELLA TYPHIMURIUM, Strain/Indicator: TA1977, Metabolic Activation: NONE, Method: STANDARD PLATE) “active; positive”; (Test System: AMES SALMONELLA TYPHIMURIUM, Strain/Indicator: TA1977, Metabolic Activation: RAT LIVER S-9, AROCLOR 1254, Method: STANDARD PLATE) “active; positive”.
